According to patent publication US12662473B2, “Inhibitors for programmed cell necrosis and preparation method therefor and use thereof” (SHANGHAI INSTITUTE OF ORGANIC CHEMISTRY, CHINESE ACADEMY OF …, priority 2019, dated 2026):
Read-outs that look alike come from different tables or passages of the source.

Columns and labels:
L929 cells = test: TNF-induced programmed cell necrosis inhibition, Cell Titer-Glo viability; format: cell-based, mouse; details: read-out: EC50 inhibitory activity on programmed cell necrosis
Source text: (§1) The adopted biological assay protocol was: the programmed necroptosis effect of compounds on TNF-induced in FADD (Fas-Associated Death Domain) deficient Jurkat cells and L929 cells.
(§2) In order to verify the inhibitory effect of the compounds of the present invention on programmed cell necrosis at the cellular level, cell types closely related to the RIP1 pathway, namely FADD deficient Jurkat cells (human peripheral blood leukemia T cell line) and L929 cells, were selected. Two different stimulation methods were used: tumor necrosis factor (TNFα) used alone, or TNFα used in combination with mitochondria-derived cysteine aspartate activator (SMAC). Cells viability was calculated by detecting chemiluminescence values, and the biological activity of the compound for inhibiting programmed cell necrosis can be obtained.
(§3) Methods: FADD deficient Jurkat cells: FADD deficient Jurkat cells (human peripheral blood leukemia T cell line) were cultured in vitro. After growing to the logarithmic growth phase, the cells were collected, centrifuged at 1000 rpm for 5 min, the supernatant was discarded, and the cell concentration was adjusted to 2.5×10^5/mL. Cells were seeded into 384-well plates, 40 μl per well. 5 μL of Smac (50 nM) diluted in cell culture medium and 5 μL of each compound were added to the corresponding wells. After pretreatment at 37° C. for 1 h, 5 μL of TNFα (50 ng/mL) diluted in cell culture medium was added to each well of the stimulation group, and 5 μL of the culture medium was added to the control group. The plate was cultured in a cell incubator (37° C., 5% CO2) for 14 h, and 15 μl of Cell Titer-Glo solution was added to each well, then incubated for 30 min at room temperature, and intracellular ATP level was measured by detecting luminescence. The unstimulated DMSO control wells were taken as 100% cell viability. L929 cells: The L929 cells (mouse fibroblasts) were cultured in vitro, digested and diluted to 6.25×10^4/ml, and the cells were seeded into 384-well plates, 40 μl per well. The plate was placed in a cell incubator (37° C., 5% CO2) for 12 hours. 5 μL of Smac (500 nM) diluted in cell culture medium and 5 μL of each compound were added to the corresponding wells. After pretreatment at 37° C. for 1 h, 5 μL of TNFα (500 ng/mL) diluted in cell culture medium was added to each well of the stimulation group, and 5 μL of the culture medium was added to the control group. After the plate was cultured for 14 h in a cell incubator (37° C., 5% CO2), 15 μl of Cell Titer-Glo solution was added to each well. The plate was incubated at room temperature for 30 min, and intracellular ATP level was measured by detecting luminescence. The unstimulated DMSO control wells were taken as 100% cell viability. EC50 values of the compounds were calculated using Prism Graphpad statistical software.
L929 cells: The L929 cells (mouse fibroblasts) were cultured in vitro, digested and diluted to 6.25×10^4/ml, and the cells were seeded into 384-well plates, 40 μl per well. The plate was placed in a cell incubator (37° C., 5% CO2) for 12 hours. 5 μL of Smac (500 nM) diluted in cell culture medium and 5 μL of each compound were added to the corresponding wells. After pretreatment at 37° C. for 1 h, 5 μL of TNFα (500 ng/mL) diluted in cell culture medium was added to each well of the stimulation group, and 5 μL of the culture medium was added to the control group. After the plate was cultured for 14 h in a cell incubator (37° C., 5% CO2), and 15 μl of Cell Titer-Glo solution was added to each well, then incubated at room temperature for 30 min, and intracellular ATP level was measured by detecting luminescence. The unstimulated DMSO control wells were taken as 100% cell viability.

FADD−/− Jurkat cells = test: as above; format: cell-based
Source text: as §1, §2, §3
FADD deficient Jurkat cells: FADD deficient Jurkat cells (human peripheral blood leukemia T cell line) were cultured in vitro. After growing to the logarithmic growth phase, the cells were collected, centrifuged at 1000 rpm for 5 min, the supernatant was discarded, and the cell concentration was adjusted to 2.5×10^5/mL. Cells were seeded into 384-well plates, 40 μl per well. 5 μL of Smac (50 nM) diluted in cell culture medium and 5 μL of each compound were added to the corresponding wells. After pretreatment at 37° C. for 1 h, 5 μL of TNFα (50 ng/mL) diluted in cell culture medium was added to each well of the stimulation group, and 5 μL of the culture medium was added to the control group. After the plate was cultured in a cell incubator (37° C., 5% CO2) for 14 h, 15 μl of Cell Titer-Glo solution was added to each well. The mixture was incubated for 30 min at room temperature, and intracellular ATP level was measured by detecting luminescence. The unstimulated DMSO control wells were taken as 100% cell viability.

[1] = Mus musculus, L929, 14 h, L929 cells (mouse), TNFa + SM164
[2] = Mus musculus, L929, L929 cells (mouse), TNFa
[3] = Homo sapiens, Jurkat, 14 h, TNFa + SM164, read-out: EC50 inhibitory activity on programmed cell necrosis
[4] = Homo sapiens, Jurkat, TNFa, read-out: EC50 inhibitory activity on programmed cell necrosis
[5] = FADD−/− Jurkat cells (human), TNFa + SM164, read-out: EC50 inhibitory activity on programmed cell necrosis
[6] = FADD−/− Jurkat cells (human), TNFa, read-out: EC50 inhibitory activity on programmed cell necrosis

| Compound | EC50 (L929 cells; [1]) [nM] | EC50 (L929 cells; [2]) [nM] | EC50 (FADD−/− Jurkat cells; [3]) [nM] | EC50 (FADD−/− Jurkat cells; [4]) [nM] | EC50 (L929 cells; L929 cells (mouse), TNFa) [nM] | EC50 (FADD−/− Jurkat cells; [5]) [nM] | EC50 (FADD−/− Jurkat cells; [6]) [nM] | EC50 (L929 cells; L929 cells (mouse), TNFa + SM164) [nM] | EC50 (L929 cells; Mus musculus, L929, L929 cells (mouse), TNFa + SM164) [nM] |
| --- | --- | --- | --- | --- | --- | --- | --- | --- | --- |
| Cc1noc([C@@H]2CCCN2C(=O)COc2ccc(Cl)cc2)n1 [QY-3-4] | 59100 | > 10000 | > 10000 | > 10000 |  |  |  |  |  |
| Cc1conc1[C@@H]1CCCN1C(=O)C(C)(C)Oc1ccc(Cl)cc1 [QY-3-11] | 1570 | 404 | 3270 | 389 |  |  |  |  |  |
| CC(C)c1noc([C@@H]2CCCN2C(=O)C(C)(C)Oc2ccc(Cl)cc2)n1 [QY-3-17] | 52400 | 5380 | > 10000 | 3910 |  |  |  |  |  |
| Cc1noc([C@@H]2CCCN2C(=O)C(C)(C)Oc2ccc(Cl)c(F)c2)n1 [QY-3-26] | 1240 | 196 | 1280 | 111 |  |  |  |  |  |
| Cc1noc([C@@H]2CCCN2C(=O)C(C)(C)Oc2ccc(Cl)cc2F)n1 [QY-3-27, (S)-2-(4-Chloro-2-fluorophenoxy)-2-methyl-1-(2-(3-methyl-1,2,4-oxadiazol-5-yl)pyrrolidin-1-yl)propan-1-one] | 792 | 133 | 849 | 56 |  |  |  |  |  |
| Cc1noc([C@@H]2CCCN2C(=O)C(C)(C)Oc2ccc3ccccc3c2)n1 [QY-3-28] | 4080 | 878 | > 10000 | 5550 |  |  |  |  |  |
| CC(C)(Oc1ccc(Cl)cc1)C(=O)N1CCCC1c1ccccc1 (stereo not drawn) [QY-3-29] | 157 | 47 | 664 | 35 |  |  |  |  |  |
| Cc1noc([C@@H]2CCCN2C(=O)C2(Oc3ccc(Cl)cc3)CC2)n1 [QY-3-35] | > 10000 | 160000 | > 10000 | 10500 |  |  |  |  |  |
| Cc1noc([C@@H]2CCCN2C(=O)C(C)(C)Sc2ccc(Cl)cc2)n1 [QY-3-36] | 9400 | 2250 | 8360 | 983 |  |  |  |  |  |
| Cc1cccc(C2CCCN2C(=O)C(C)(C)Oc2ccc(Cl)cc2)c1 (stereo not drawn) [QY-3-39] | 1480 | 386 | 5280 | 712 |  |  |  |  |  |
| Cc1noc([C@@H]2CCCN2C(=O)C2(Oc3ccc(Cl)cc3)CCCC2)n1 [QY-3-46] | > 10000 | 2010 | 5830 | 789 |  |  |  |  |  |
| CCN(CC)Cc1noc([C@@H]2CCCN2C(=O)C(C)(C)Oc2ccc(Cl)cc2)n1 [QY-3-51] | > 10000 | > 10000 | > 10000 | 59200 |  |  |  |  |  |
| CN(C)C(=O)c1noc([C@@H]2CCCN2C(=O)C(C)(C)Oc2ccc(Cl)cc2)n1 [QY-3-65] | > 10000 | > 10000 | > 10000 | > 10000 |  |  |  |  |  |
| Cc1noc([C@@H]2CCCN2C(=O)C(C)(C)Oc2ccc(Cl)cc2Cl)n1 [QY-3-81] | 2720 | 704 | 1960 | 326 |  |  |  |  |  |
| Cc1noc([C@@H]2CCCN2C(=O)C(C)(C)N(C)c2ccc(Cl)cc2)n1 [QY-3-86] | > 10000 | > 10000 | 8680 | 13500 |  |  |  |  |  |
| Cc1noc([C@@H]2CCCN2C(=O)C(C)(C)Oc2ccc(Cl)cc2C)n1 [QY-3-94] | 5220 |  |  |  | 1410 | 2960 | 516 |  |  |
| COc1cc(Cl)ccc1OC(C)(C)C(=O)N1CCC[C@H]1c1nc(C)no1 [QY-3-95] | 1000 | 135 | 1140 | 102 |  |  |  |  |  |

| Compound | EC50 (L929 cells; [1]) [nM] | EC50 (L929 cells; [2]) [nM] | EC50 (FADD−/− Jurkat cells; [3]) [nM] | EC50 (FADD−/− Jurkat cells; [4]) [nM] | EC50 (L929 cells; L929 cells (mouse), TNFa) [nM] | EC50 (FADD−/− Jurkat cells; [5]) [nM] | EC50 (FADD−/− Jurkat cells; [6]) [nM] | EC50 (L929 cells; L929 cells (mouse), TNFa + SM164) [nM] | EC50 (L929 cells; Mus musculus, L929, L929 cells (mouse), TNFa + SM164) [nM] |
| --- | --- | --- | --- | --- | --- | --- | --- | --- | --- |
| Cc1noc([C@@H]2CCCN2C(=O)C(C)(C)Oc2ccc(Cl)cc2C)n1 [QY-3-96] |  |  |  |  | > 10000 | 9220 | 2790 | > 10000 |  |
| CC(C)(Oc1ccc(Cl)cc1F)C(=O)N1CCCC1c1ccccc1 (stereo not drawn) [QY-3-99, 2-(4-Chloro-2-fluorophenoxy)-2-methyl-1-(2-phenylpyrrolidin-1-yl)propan-1-one] |  | 62 | 444 | 61 |  |  |  |  | 244 |
| Cc1noc([C@@H]2CCCN2C(=O)C(C)(C)Oc2cc(Cl)c(Cl)cc2Cl)n1 [QY-4-1] | > 10000 | 12700 | > 10000 | 10300 |  |  |  |  |  |
| Cc1noc([C@@H]2CCCN2C(=O)C(C)(C)Oc2c(F)cc(Cl)cc2F)n1 [QY-4-2] | 16900 | 3950 | 7730 | 1060 |  |  |  |  |  |
| CC(C)(Oc1ccc(Cl)cc1)C(=O)N1CCCC1c1ccc(Cl)cc1 (stereo not drawn) [QY-4-6] | 292 | 65 | 776 | 116 |  |  |  |  |  |
| CC(C)(Oc1ccc(Cl)cc1)C(=O)N1CCCC1c1ccc(F)cc1 (stereo not drawn) [QY-4-7] | 652 | 111 | 825 | 126 |  |  |  |  |  |
| Cn1nnnc1[C@@H]1CCCN1C(=O)C(C)(C)Oc1ccc(Cl)cc1 [QY-4-11] | > 10000 | > 10000 | 1710 | 61 |  |  |  |  |  |
| Cn1nnc([C@@H]2CCCN2C(=O)C(C)(C)Oc2ccc(Cl)cc2)n1 [QY-4-12] | 9530 | 1610 | 5890 | 607 |  |  |  |  |  |
| Cc1noc([C@@H]2CCCN2C(=O)C(C)(C)Oc2c(F)cc(F)cc2F)n1 [QY-4-14] | > 10000 | 5890 | 40600 | 18000 |  |  |  |  |  |
| Cc1ccccc1C1CCCN1C(=O)C(C)(C)Oc1ccc(Cl)cc1 (stereo not drawn) [QY-4-27] | > 10000 | 3670 | > 10000 | 2900 |  |  |  |  |  |
| CC(C)(Oc1ccc(Cl)cc1)C(=O)N1CCCC1c1ccccc1Cl (stereo not drawn) [QY-4-32] | 1650 | 520 | 2680 | 712 |  |  |  |  |  |
| CC(C)(Oc1ccc(Cl)cc1)C(=O)N1CCCC1c1cccc(Cl)c1 (stereo not drawn) [QY-4-35] | > 10000 | 3700 | > 10000 | 4090 |  |  |  |  |  |
| CC(C)(Oc1ccc(Cl)cc1)C(=O)N1CCCC1c1cccc(F)c1 (stereo not drawn) [QY-4-39] | 675 | 189 | 1190 | 274 |  |  |  |  |  |
| Cc1ccc(C2CCCN2C(=O)C(C)(C)Oc2ccc(Cl)cc2C#N)cc1 (stereo not drawn) [QY-4-66] | 1280 | 392 | 2190 | 544 |  |  |  |  |  |
| Cc1ccc(C2CCCN2C(=O)C(C)(C)Oc2ccc(Cl)cc2C(F)(F)F)cc1 (stereo not drawn) [QY-4-67] | 3930 | 1380 | 5160 | 1330 |  |  |  |  |  |
| CC(C)(Oc1ccc(Cl)cc1F)C(=O)N1CCCC1c1cccc(C#N)c1 (stereo not drawn) [QY-4-69] | 3630 | 650 | 9380 | 1540 |  |  |  |  |  |
